{
  "source": "patent US20240010589A1",
  "about": "“SUBSTITUTED RESORCINOL COMPOUNDS AS AMPK ACTIVATORS, COMPOSITIONS, METHODS AND USES THEREOF” (SOCIETE DES PRODUITS NESTLE S.A., priority 2020, published 2024)",
  "key": {"[1]": {"tested_on": "AMPK containing β1 wild-type (WT) subunit", "assay": "pACC HTRF assay in AMPKβ1/β2 double knockout U-2 OS cells stably expressing β1 WT", "type": "cell-based, human", "conditions": "varying concentrations, 30 mins at 37 C, FIG. 2", "procedure": "(§1) The β1 WT or β1 S108A mutant were stably expressed in […] double knockout cells and were treated with varying concentrations of Compound 1 for 30 mins at 37 C. Phosphorylation of ACC was assessed using the HTRF Cisbio (pACC kit).\n(§2) AMPKβ1/β2 double knockout U-2 OS Flp-In™ T-Rex™ cell lines were generated by Horizon Discovery (Cambridge, UK). Cells were genotyped and analysed by Western blotting to confirm that there was a complete knockout of AMPKβ1/β2. We took these AMPKβ1/β2 double knockout cells, and re-introduced the expression of human β1 wild-type (WT) or a (31 Serine 108 to alanine mutation (S108A). This was achieved using the Flp-In™ system (Invitrogen) present in this cell line and stable cells expressing β1 WT or a β1 S108A mutant were generated according to the manufacturers' protocols. Re-expression of the β1 subunit was confirmed by Western blot analysis.\n(§3) Cells stably expressing β1 WT or a β1 S108A mutant were treated with varying concentrations of Compound 1. Cells lysates were subjected to the pACC HTRF (Cisbio) assay to determine the level of phosphorylation of the AMPK substrate, ACC, in cell lysates, as in example 1."}, "AMPK": {"tested_on": "AMPK", "assay": "pACC HTRF assay (Cisbio) in U-2 OS Flp-In T-REx cells", "type": "cell-based", "conditions": "varying concentrations, 30 mins at 37 C, FIG. 1", "procedure": "Compound 1 increased the phosphorylation of the AMPK substrate, acetyl-CoA carboxylase (ACC), in U-2 OS Flp-In T-REx mammalian cells. U-2 OS cells were treated with varying concentrations of Compound 1 for 30 mins at 37 C. Phosphorylation of ACC was assessed using the HTRF Cisbio (pACC kit). […] U-2 OS Flp-In T-REx cells were seeded at 50 K in a 96-well plate and left overnight at 37 C in DMEM GlutaMAX (Thermo Fisher Scientific) supplemented with 10% (vol/vol) FBS and 100 U/ml penicillin G, and 100 μg/ml streptomycin. Cells were treated for 30 mins with varying concentrations of Compound 1 in media lacking FBS and then cells were lysed in 50 μl of Cisbio lysis buffer #1 supplemented with blocking solution as per the manufacturer's protocol (Cisbio). Cells were lysed for 30 mins at room temperature before 16 μl of lysate was incubated with 4 μl of the HTRF antibodies (1:40 dilution of the acceptor and donor (p)ACC antibodies, as per the manufacturers protocol). Lysates were incubated overnight with the antibodies before the 665 nm/620 nm ratio was determined using a MolecularDevices i3 plate reader (with a HTRF cartridge add-on). […] Phosphorylation of ACC is extensively used as a cellular read-out of AMPK activity."}, "[2]": {"tested_on": "AMPK containing β1 S108A (ADaM site) mutant subunit", "assay": "pACC HTRF assay in AMPKβ1/β2 double knockout U-2 OS cells stably expressing β1 S108A mutant", "type": "cell-based, human", "conditions": "varying concentrations, 30 mins at 37 C, FIG. 2", "procedure": "as §1, §2, §3"}},
  "note": "Entries after “also recorded” stand apart in the source; their conditions may differ.",
  "data": [
    {"smiles": "C=C(C)[C@@H]1CCC(C)=C[C@H]1c1c(O)cc(CCCCC)cc1O", "note": "[Compound 1, 2-[(1R,6R)-3-Methyl-6-(1-methylethenyl)-2-cyclohexen-1-yl]-5-pentyl-1,3-benzenediol]", "values": [
      {"measurement": "phosphorylation of ACC (pACC), fold increase in activation", "setting": "[1]", "value": "able to dose-dependently increase pACC"},
      {"measurement": "phosphorylation of the AMPK substrate ACC (HTRF ratio 665/620 nm)", "setting": "AMPK", "value": "increased the phosphorylation of the AMPK substrate, ACC, in a dose-dependent manner"},
      {"measurement": "phosphorylation of ACC (pACC) / AMPK activation, fold increase in activation", "setting": "[2]", "value": "did not activate AMPK; also recorded: not able to increase the activity of AMPK"}
    ]}
  ]
}
